Columns and labels:
[1] = test system: MHCC97-H cells; assay: MTT cell survival assay; format: cell-based, human; conditions: for change of IC50 on MHCC97-H cells on overexpression of miR-3609: miR-3609 overexpression versus control
[2] = test system: PDC No. 3 subcutaneous tumors; assay: Tumor-based clearance of sorafenib in subcutaneous tumors; format: in vivo, nude mice; conditions: PDC No. 3, Tumor-based, miR-3609; sorafenib injected into subcutaneous tumors
[3] = test system: PDC No. 1 subcutaneous growth; assay: Antitumor effect in vivo, subcutaneous tumor model; design: species or system nude mice; conditions: oral administration every 2 days, 10 treatments
[4] = test system: PDC No. 1 subcutaneous tumors; assay: Tumor-based clearance of sorafenib in subcutaneous tumors; format: in vivo, nude mice; conditions: PDC No. 1, Tumor-based, Control; sorafenib injected into subcutaneous tumors
[5] = Clinical outcome of advanced HCC patients who received sorafenib treatment; format: in vivo, human
[6] = test system: PDC No. 4 subcutaneous growth; assay: Antitumor effect in vivo, subcutaneous tumor model; design: species or system nude mice; conditions: oral administration every 2 days, 10 treatments
[7] = test system: PDC No. 5 subcutaneous growth; assay: Antitumor effect in vivo, subcutaneous tumor model; design: species or system nude mice; conditions: oral administration every 2 days, 10 treatments
[8] = test system: PDC No. 3 subcutaneous growth; assay: Antitumor effect in vivo, subcutaneous tumor model; design: species or system nude mice; conditions: oral administration every 2 days, 10 treatments
[9] = test system: MHCC97-H subcutaneous tumors; assay: Tumor-based clearance of sorafenib in subcutaneous tumors; format: in vivo, nude mice; conditions: Control, sorafenib injected into subcutaneous tumors
[10] = Cell-based metabolism/clearance of sorafenib; format: in vitro ADME, human; conditions: human, MHCC97-H cells, Half-Life Time (t1/2, h), MHCC97-H, Cell-based, 1 μmol/L sorafenib
[11] = test system: MHCC97-H cells; assay: Cell-based metabolism/clearance of sorafenib; format: in vitro ADME, human; conditions: LC-MS/MS, cultured HCC cells
[12] = test system: MHCC97-H subcutaneous growth; assay: Antitumor effect in vivo, subcutaneous tumor model; design: species or system nude mice; conditions: for IC50 values of Soarfenib on Subcutaneous Tumor Weights: MHCC97-H, oral administration every 2 days, 10 treatments
[13] = test system: PDC No. 2 subcutaneous growth; assay: Antitumor effect in vivo, subcutaneous tumor model; design: species or system nude mice; conditions: oral administration every 2 days, 10 treatments
[14] = patients with EPAS-1 mRNA expression High (n = 26)
[15] = patients with EPAS-1 mRNA expression Low (n = 26)
[16] = patients with miR-3609 expression High (n = 26)
[17] = patients with miR-3609 expression Low (n = 26)

COc1cc2c(Oc3ccc4[nH]c(C)cc4c3F)ccnc2cc1OCC1(N)CC1 [anlotinib]
change of IC50 on MHCC97-H cells on overexpression of miR-3609 [1]: decreased

N#CC1(c2ccc(NC(=O)c3cccnc3NCc3ccncc3)cc2)CCCC1 [apatinib]
change of IC50 on MHCC97-H cells on overexpression of miR-3609 [1]: decreased

COc1cc2nccc(Oc3ccc(NC(=O)NC4CC4)c(Cl)c3)c2cc1C(N)=O [lenvatinib]
change of IC50 on MHCC97-H cells on overexpression of miR-3609 [1]: decreased

CNC(=O)c1cc(Oc2ccc(NC(=O)Nc3ccc(Cl)c(C(F)(F)F)c3)c(F)c2)ccn1 [regorafenib]
change of IC50 on MHCC97-H cells on overexpression of miR-3609 [1]: decreased

CNC(=O)c1cc(Oc2ccc(NC(=O)Nc3ccc(Cl)c(C(F)(F)F)c3)cc2)ccn1 [sorafenib]
Half-Life Time (t1/2, h) [2]: 50.73 ± 4.02 h | IC50 values of Soarfenib on Subcutaneous Tumor Weights ([3]; PDC No. 1, Control): ~3 mg/kg | IC50 values of Soarfenib on Subcutaneous Tumor Weights ([3]; PDC No. 1, miR-3609 + EPAS-1^Mut): >3 mg/kg | IC50 values of Soarfenib on Subcutaneous Tumor Weights ([3]; PDC No. 1, miR-3609): 0.87 ± 0.39 mg/kg | Half-Life Time (t1/2, h) [4]: 26.32 ± 6.91 h | OS (overall survival) [5, 14]: 11.0 M | TTP (time to progress) [5, 14]: 8.0 M | OS (overall survival) [5, 15]: 16.0 M | TTP (time to progress) [5, 15]: 13.0 M | OS (overall survival) [5, 16]: 15.0 M | TTP (time to progress) [5, 16]: 12.0 M | OS (overall survival) [5, 17]: 12.0 M | TTP (time to progress) [5, 17]: 8.0 M | IC50 values of Soarfenib on Subcutaneous Tumor Weights ([6]; PDC No. 4, Control): 2.70 ± 0.70 mg/kg | IC50 values of Soarfenib on Subcutaneous Tumor Weights ([6]; PDC No. 4, miR-3609 + EPAS-1^Mut): 2.76 ± 0.62 mg/kg | IC50 values of Soarfenib on Subcutaneous Tumor Weights ([6]; PDC No. 4, miR-3609): 0.95 ± 0.60 mg/kg | IC50 values of Soarfenib on Subcutaneous Tumor Weights ([7]; PDC No. 5, Control): 2.88 ± 0.39 mg/kg | IC50 values of Soarfenib on Subcutaneous Tumor Weights ([7]; PDC No. 5, miR-3609 + EPAS-1^Mut): 2.32 ± 0.69 mg/kg | IC50 values of Soarfenib on Subcutaneous Tumor Weights ([7]; PDC No. 5, miR-3609): 0.66 ± 0.21 mg/kg | IC50 values of Soarfenib on Subcutaneous Tumor Weights ([8]; PDC No. 3, Control): 1.99 ± 0.54 mg/kg | IC50 values of Soarfenib on Subcutaneous Tumor Weights ([8]; PDC No. 3, miR-3609 + EPAS-1^Mut): 1.81 ± 0.41 mg/kg | IC50 values of Soarfenib on Subcutaneous Tumor Weights ([8]; PDC No. 3, miR-3609): 0.30 ± 0.04 mg/kg | Half-Life Time (t1/2, h) [9]: 30.73 ± 6.46 h | half-life at 1 μmol/L ([10]; Control): 18.6 ± 2.46 h | half-life at 1 μmol/L ([10]; miR-3609 + EPAS-1^Mut): 18 ± 3.18 h | half-life at 1 μmol/L ([10]; miR-3609): 37.1 ± 6.12 h | metabolism and clearance in HCC cells [11]: gradually metabolized and cleared | survival of MHCC97-H cells ([1]; 0.01-10 μmol/L): inhibited the survival of MHCC97-H cells in a dose-dependent manner | change of IC50 on MHCC97-H cells on overexpression of miR-3609 [1]: decreased | IC50 values of Soarfenib on Subcutaneous Tumor Weights ([12]; Control): 2.25 ± 0.44 mg/kg | IC50 values of Soarfenib on Subcutaneous Tumor Weights ([12]; miR-3609 + EPAS-1^Mut): 2.51 ± 0.52 mg/kg | IC50 values of Soarfenib on Subcutaneous Tumor Weights ([12]; miR-3609): 0.15 ± 0.02 mg/kg | subcutaneous growth of MHCC97-H cells ([12]; nude mice, oral administration): inhibited the subcutaneous growth of MHCC97-H cells in a dose-dependent manner | IC50 values of Soarfenib on Subcutaneous Tumor Weights ([13]; PDC No. 2, Control): 1.77 ± 0.20 mg/kg | IC50 values of Soarfenib on Subcutaneous Tumor Weights ([13]; PDC No. 2, miR-3609 + EPAS-1^Mut): 2.20 ± 0.45 mg/kg | IC50 values of Soarfenib on Subcutaneous Tumor Weights ([13]; PDC No. 2, miR-3609): 0.48 ± 0.10 mg/kg

Source: publication PMC7394586 (OncoTargets and therapy, 2020)
